# Values quoted from earlier work, collected in PubChem BioAssay AID1259409 (Chemical Carcinogenesis Research Information System (CCRIS), 2018).
# System: rodent chemically induced tumor inhibition, incidence and multiplicity
# Assay: CCRIS tumor inhibitor studies
smiles,measurement,setting,value
Cn1c(=O)c2c(ncn2C)n(C)c1=O,"tumour outcome (control, treated, inhibition, significance)","Carcinogen: DIETHYLNITROSAMINE, 55-18-5, Dose [Inhibitor]: 0, 600 MG/L IN DRINKING WATER BEGINNING 3 D PRIOR TO FIRST CARCINOGEN DOSE AND CONTINUING TO 14 D POST LAST CARCINOGEN D, Route [Inhibitor]: ORAL, Species: RAT, Strain/Sex: BD6/FEMALE, Target Tissue: Type of Lesion: ESOPHAGUS: TUMOR, Dose [Carcinogen]: 80 MG/KG BW 1/WK FOR 7 WK, Promoter: NONE USED","25%, 11%, 56%, not significant"
same,"tumour outcome (control, treated, inhibition, significance)","Carcinogen: DIETHYLNITROSAMINE, 55-18-5, Dose [Inhibitor]: 0, 600 MG/L IN DRINKING WATER BEGINNING 3 D PRIOR TO FIRST CARCINOGEN DOSE AND CONTINUING TO 14 D POST LAST CARCINOGEN D, Route [Inhibitor]: ORAL, Species: RAT, Strain/Sex: BD6/FEMALE, Target Tissue: Type of Lesion: ESOPHAGUS: TUMOR, Dose [Carcinogen]: 80 MG/KG BW 1/WK FOR 8 WK, Promoter: NONE USED","18%, 22%, -22%, not significant"
same,"tumour outcome (control, treated, inhibition, significance)","Carcinogen: DIETHYLNITROSAMINE, 55-18-5, Dose [Inhibitor]: 0, 600 MG/L IN DRINKING WATER BEGINNING 3 D PRIOR TO FIRST CARCINOGEN DOSE AND CONTINUING TO 14 D POST LAST CARCINOGEN D, Route [Inhibitor]: ORAL, Species: RAT, Strain/Sex: BD6/FEMALE, Target Tissue: Type of Lesion: LIVER: TUMOR, Dose [Carcinogen]: 80 MG/KG BW 1/WK FOR 7 WK, Promoter: NONE USED","64%, 56%, 13%, not significant"
same,"tumour outcome (control, treated, inhibition, significance)","Carcinogen: DIETHYLNITROSAMINE, 55-18-5, Dose [Inhibitor]: 0, 600 MG/L IN DRINKING WATER FOR DURATION OF STUDY BEGINNING 4 D POST CARCINOGEN TREATMENT (STUDY DURATION: 6 MO), Route [Inhibitor]: ORAL, Species: RAT, Strain/Sex: BD6/FEMALE, Target Tissue: Type of Lesion: LIVER: TUMOR, Dose [Carcinogen]: 80 MG/KG BW 1/WK FOR 9 WK, Promoter: NONE USED","100%, 100%, 0%, not significant"
same,"tumour outcome (control, treated, inhibition, significance)","Carcinogen: DIETHYLNITROSAMINE, 55-18-5, Dose [Inhibitor]: 0, 600 MG/L IN DRINKING WATER FOR DURATION OF STUDY BEGINNING 4 D POST CARCINOGEN TREATMENT(STUDY DURATION: 6 MO), Route [Inhibitor]: ORAL, Species: RAT, Strain/Sex: BD6/FEMALE, Target Tissue: Type of Lesion: ESOPHAGUS: TUMOR, Dose [Carcinogen]: 80 MG/KG BW 1/WK FOR 9 WK, Promoter: NONE USED","29%, 21%, 28%, not significant"
same,"tumour outcome (control, treated, inhibition, significance)","Carcinogen: DIETHYLNITROSAMINE, 55-18-5, Dose [Inhibitor]: 0, 600 MG/L IN DRINKING WATER FOR DURATION OF STUDY BEGINNING 7 D PRIOR TO CARCINOGEN TREATMENT (STUDY DURATION: 6 MO), Route [Inhibitor]: ORAL, Species: RAT, Strain/Sex: BD6/FEMALE, Target Tissue: Type of Lesion: ESOPHAGUS: TUMOR, Dose [Carcinogen]: 80 MG/KG BW 1/WK FOR 5 WK, Promoter: NONE USED","6%, 11%, -83%, not significant"
same,"tumour outcome (control, treated, inhibition, significance)","Carcinogen: DIETHYLNITROSAMINE, 55-18-5, Dose [Inhibitor]: 0, 600 MG/L IN DRINKING WATER FOR DURATION OF STUDY BEGINNING 7 D PRIOR TO CARCINOGEN TREATMENT (STUDY DURATION: 6 MO), Route [Inhibitor]: ORAL, Species: RAT, Strain/Sex: BD6/FEMALE, Target Tissue: Type of Lesion: LIVER: TUMOR, Dose [Carcinogen]: 80 MG/KG BW 1/WK FOR 5 WK, Promoter: NONE USED","44%, 41%, 7%, not significant"
same,"tumour outcome (control, treated, inhibition, significance)","Carcinogen: DIETHYNITROSAMINE, 55-18-5, Dose [Inhibitor]: 0, 600 MG/L IN DRINKING WATER BEGINNING 3 D PRIOR TO FIRST CARCINOGEN DOSE AND CONTINUING TO 14 D POST LAST CARCINOGEN D, Route [Inhibitor]: ORAL, Species: RAT, Strain/Sex: BD6/FEMALE, Target Tissue: Type of Lesion: LIVER: TUMOR, Dose [Carcinogen]: 80 MG/KG BW 1/WK FOR 8 WK, Promoter: NONE USED","82%, 72%, 12%, not significant"
same,"tumour outcome (control, treated, inhibition, significance)","Carcinogen: N,N-DIETHYLNITROSAMINE, 55-18-5, Dose [Inhibitor]: 600 MG/L IN DRINKING WATER DAILY STARTING 3 D BEFORE START OF CARCINOGEN INJECTION AND CONTINUING UNTIL 2 WK AFTER LAST, Route [Inhibitor]: ORAL, Species: RAT, Strain/Sex: BDIV AND WISTAR/MALE, Target Tissue: Type of Lesion: LIVER: TUMOR, Dose [Carcinogen]: 80 MG/KG BW IN 0.2 ML 0.9% SALINE 1/WK FOR 10 WK, Promoter: NONE USED","18/22 (82%), 12/18 (67%), 18%, not calculated"
same,"tumour outcome (control, treated, inhibition, significance)","Carcinogen: N-METHYL-N'-NITRO-N-NITROSOGUANIDINE, 70-25-7, Dose [Inhibitor]: 0, 0.25% IN DRINKING WATER FOR 32 WK BEGINNING POST CARCINOGEN TREATMENT (STUDY DURATION: 40 WK), Route [Inhibitor]: ORAL, Species: RAT, Strain/Sex: WISTAR/MALE, Target Tissue: Type of Lesion: GLANDULAR STOMACH (PYLORUS): ADENOCARCINOMA, Dose [Carcinogen]: 100 PPM IN DRINKING WATER FOR 8 WK, Promoter: SODIUM CHLORIDE, 7647-14-5","4/29 (14%), 0/28 (0%), 100%, p<0.05"
same,"tumour outcome (control, treated, inhibition, significance)","Carcinogen: N-METHYL-N-NITROSOUREA, 684-93-5, Dose [Inhibitor]: 0, 500 MG/L IN DRINKING WATER BEGINNING AT 60 D OF AGE AND CONTINUING FOR DURATION OF STUDY (STUDY DURATION: 26 WK), Route [Inhibitor]: ORAL, Species: RAT, Strain/Sex: SPRAGUE-DAWLEY/FEMALE, Target Tissue: Type of Lesion: MAMMARY GLAND: CARCINOMA, Dose [Carcinogen]: 2.5 MG/100 G BW ONCE AT 57 D OF AGE, Promoter: NONE USED","34/40 (85%), 31/40 (78%), 8%, not significant"
same,"tumour outcome (control, treated, inhibition, significance)","Carcinogen: N-METHYL-N-NITROSOUREA, 684-93-5, Dose [Inhibitor]: 0, 500 UG/L IN DRINKING WATER BEGINNING AT 29 D OF AGE AND CONTINUING TO D 60 OF AGE (STUDY DURATION: 30 WK), Route [Inhibitor]: ORAL, Species: RAT, Strain/Sex: SPRAGUE-DAWLEY, Target Tissue: Type of Lesion: MAMMARY GLAND: CARCINOMA, Dose [Carcinogen]: 2.5 MG/100 G BW ONCE AT 57 D OF AGE, Promoter: NONE USED","34/40 (85%), 32/40 (80%), 6%, not significant"
same,"tumour outcome (control, treated, inhibition, significance)","Carcinogen: SUBCUTANEOUS, Dose [Inhibitor]: 4-(METHYLNITROSAMINO)-1-(3-PYRIDYL-1-BUTANONE), 64091-91-4, Route [Inhibitor]: 0, 680 PPM IN DRINKING WATER FOR 22 WK BEGINNING 1 WK PRIOR TO CARCINOGEN TREATMENT (STUDY DURATION: 101 WK), Species: RAT, Strain/Sex: ORAL, Target Tissue: Type of Lesion: LIVER :TUMOR, Dose [Carcinogen]: NONE USED","11/32 (34%), 8/20 (40%), -18%, not significant"
same,"tumour outcome (control, treated, inhibition, significance)","Carcinogen: URETHANE, 51-79-6, Dose [Inhibitor]: 0.05 UMOL/G BW GIVEN AT 6 HR INTERVALS DURING THE PERIOD OF 0 TO 36 HR AFTER CARCINOGEN TREATMENT FOR 7 INJECTIONS FOLLO, Route [Inhibitor]: INTRAPERITONEAL, Species: MOUSE, Strain/Sex: ICR/FEMALE, Target Tissue: Type of Lesion: LUNG: PAPILLARY ADENOMA, Dose [Carcinogen]: 0.1 MG/G BW SINGLE INJECTION, Promoter: NONE USED","31/59 (53%), 7/32 (22%), 58%, p<0.01"
